{"source": "paper PMC10290954", "about": "(Nature Metabolism, 2023)", "key": {"mouse GIP receptor [1]": {"molecular_target": "T1, mouse GIP receptor (Mus musculus, UniProt Q0P543)", "T1 sequence (Q0P543 19-460)": "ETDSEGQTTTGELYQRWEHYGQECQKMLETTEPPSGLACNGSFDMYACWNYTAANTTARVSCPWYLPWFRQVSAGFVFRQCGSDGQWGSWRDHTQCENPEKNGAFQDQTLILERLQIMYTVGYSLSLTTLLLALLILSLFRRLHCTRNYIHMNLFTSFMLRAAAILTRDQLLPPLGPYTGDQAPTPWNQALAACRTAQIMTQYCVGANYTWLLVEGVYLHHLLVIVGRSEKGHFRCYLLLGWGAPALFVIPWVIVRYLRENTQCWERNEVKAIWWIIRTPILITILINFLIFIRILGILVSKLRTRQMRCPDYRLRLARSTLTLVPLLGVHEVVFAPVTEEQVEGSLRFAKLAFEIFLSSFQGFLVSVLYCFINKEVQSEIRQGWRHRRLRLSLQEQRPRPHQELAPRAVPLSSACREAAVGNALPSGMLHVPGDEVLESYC", "experiment": "[35S]GTPγS binding, mouse GIPR", "format": "biochemical", "set-up": "expressed in transfected cells; host or cells: low-receptor-density clonal cell lines", "conditions": "mGIPR GTPgS", "method": "(§1) Methods for these assays have been previously described. In brief, for GTPγs binding, the potency of ligands to stimulate receptor-dependent elevation of the GTPγS-bound Gαs subunit was determined using membrane preparations from low-receptor-density receptor clonal cell lines. Reactions were incubated for 30 min at room temperature in white, clear-bottom microtiter plates, and per cent of the maximal response was calculated using control wells as a reference. Relative EC50 values were derived by nonlinear regression analysis using the per cent response versus the concentration of ligand and fitted to a four-parameter logistic equation using GraphPad Prism 7 software. For cAMP assays, kinetic cAMP assays were performed in low-density receptor cell clones transfected with the Glosensor 22 F vector (Promega). Cells were equilibrated for 5–20 min and then 20 μl of 10× ligand was added and a luminescence time course was collected."}, "mouse GIP receptor [2]": {"molecular_target": "T1, mouse GIP receptor", "experiment": "cAMP generation (Glosensor), mouse GIPR", "format": "cell-based", "set-up": "expressed in transfected cells; host or cells: low-receptor-density clonal cell lines", "conditions": "for HillSlope / Span (four parameter fit) / Top (four parameter fit) / Bottom (four parameter fit): mGIP-R HEK-293 cells, cAMP formation; for HillSlope: four parameter fit - normalized; for Span (four parameter fit) / Top (four parameter fit) / Bottom (four parameter fit): max signal = 100 nM human GIP(1-42)NH2, normalized", "method": "as §1, with “collected. Ligand (10×) was titrated by manual serial dilution in DMSO followed by step-down into assay buffer.” for “collected.”"}, "human islets": {"test_system": "human islets", "experiment": "Human islet perifusion, insulin secretion with Ex9 or hGIP(3-30) (Extended Data Fig. 2)", "format": "cell-based", "conditions": "two donor sets, 30 nM tirzepatide, antagonist 1 μM", "method": "Human islets were obtained from both the Alberta Diabetes Institute and the Integrated Islet Distribution Program. All islets were obtained from consenting donors. Details for the general perifusion protocol have been previously described[21] and are similar to the mouse perifusion protocol. […] Each set of human islets consisted of n = 3 for each condition. These were averaged to generate a single data point (Fig. 2c). Insulin values were measured with a Lumit insulin immunoassay (Promega) using an EnVision plate reader (PerkinElmer). For the glucagon secretion experiments (Fig. 3), the average glucagon values were calculated during control (minutes 35–45) and stimulated (minutes 55–65) conditions. All peptides were used at 30 nM concentrations based on previous work[16]. Amino acids were used at concentrations of 3 mM based on previous work[11]. Glucagon was measured with a Lumit Glucagon Immunoassay Kit (cat. no. CS3037A02; Promega) using an EnVision plate reader (PerkinElmer). Somatostatin was measured with an ELISA assay (cat. no. FEK-060-14; Phoenix Pharmaceuticals). All data are expressed as the measured concentration relative to both flow rate and islet number (insulin, ng ml^–1 × (1/200 µl ml^–1) × (1/75 islets); glucagon, pM × (1/200 µl ml^–1) × (1/75 islets); somatostatin, pg ml^–1 × (1/200 µl ml^–1) × (1/75 islets))[49]. Human pancreatic islets and pancreas tissue were isolated from deceased donors under ethical approval from the Human Research Ethics Board of the University of Alberta (Pro00013094, Pro00001754) and obtained from the NIDDK-funded Integrated Islet Distribution Program (IIDP) (RRID: SCR _014387). All donors’ families gave informed consent for the use of pancreatic tissue in research and were not financially compensated.\nThe integrated area under the curve (iAUC) was calculated for both glucose and tirzepatide stimulated insulin secretion using the value of the first time point as the baseline. All values are mean + /- SEM, n = 3/group. A one-way ANOVA with Tukey’s posthoc test was used. Source data"}, "[3]": {"molecular_target": "T2, mouse GIP receptor (mGIPR), transiently expressed in HEK293T cells for BRET (mouse) (UniProt Q0P543)", "T2 sequence": "T1 sequence (Q0P543 19-460)"}, "[4]": {"molecular_target": "T3, mouse GIP receptor (mGIPR), cloned, in membranes of HEK cells (mouse) (UniProt Q0P543)", "T3 sequence": "T1 sequence (Q0P543 19-460)"}}}
{"compound": "CC[C@H](C)[C@H](NC(=O)[C@H](CO)NC(=O)[C@H](Cc1ccc(O)cc1)NC(=O)[C@H](CC(=O)O)NC(=O)[C@H](CO)NC(=O)[C@@H](NC(=O)[C@H](Cc1ccccc1)NC(=O)[C@@H](NC(=O)CNC(=O)[C@H](CCC(=O)O)NC(=O)[C@H](C)NC(=O)[C@@H](N)Cc1ccc(O)cc1)[C@@H](C)O)[C@@H](C)CC)C(=O)N[C@@H](C)C(=O)N[C@@H](CCSC)C(=O)N[C@@H](CC(=O)O)C(=O)N[C@@H](CCCCN)C(=O)N[C@H](C(=O)N[C@@H](Cc1c[nH]cn1)C(=O)N[C@@H](CCC(N)=O)C(=O)N[C@@H](CCC(N)=O)C(=O)N[C@@H](CC(=O)O)C(=O)N[C@@H](Cc1ccccc1)C(=O)N[C@H](C(=O)N[C@@H](CC(N)=O)C(=O)N[C@@H](Cc1c[nH]c2ccccc12)C(=O)N[C@@H](CC(C)C)C(=O)N[C@@H](CC(C)C)C(=O)N[C@@H](C)C(=O)N[C@@H](CCC(N)=O)C(=O)N[C@@H](CCCCN)C(=O)NCC(=O)N[C@@H](CCCCN)C(=O)N[C@@H](CCCCN)C(=O)N[C@@H](CC(N)=O)C(=O)N[C@@H](CC(=O)O)C(=O)N[C@@H](Cc1c[nH]c2ccccc12)C(=O)N[C@@H](CCCCN)C(=O)N[C@@H](Cc1c[nH]cn1)C(=O)N[C@@H](CC(N)=O)C(=O)N[C@H](C(=O)N[C@H](C(=O)N[C@@H](CCC(N)=O)C(N)=O)[C@@H](C)O)[C@@H](C)CC)C(C)C)[C@@H](C)CC", "note": "[hGIP]", "values": [{"measurement": "Emax", "setting": "mouse GIP receptor [1]; run of 2019-03-15", "result": 91.9, "unit": "%"}, {"measurement": "Emax", "setting": "mouse GIP receptor [1]; run of 2019-04-02", "result": 91.5, "unit": "%"}, {"measurement": "Emax", "setting": "mouse GIP receptor [1]; run of 2019-06-28", "result": 93.8, "unit": "%"}, {"measurement": "Emax", "setting": "mouse GIP receptor [1]; run of 2022-02-17", "result": 93.1, "unit": "%"}]}
{"compound": "CC[C@H](C)[C@H](NC(=O)[C@H](CO)NC(=O)[C@H](Cc1ccc(O)cc1)NC(=O)[C@H](CC(=O)O)NC(=O)[C@H](CO)NC(=O)[C@@H](NC(=O)[C@H](Cc1ccccc1)NC(=O)[C@@H](NC(=O)CNC(=O)[C@H](CCC(=O)O)NC(=O)[C@H](C)NC(=O)[C@@H](N)Cc1ccc(O)cc1)[C@@H](C)O)[C@@H](C)CC)C(=O)N[C@@H](C)C(=O)N[C@@H](CCSC)C(=O)N[C@@H](CC(=O)O)C(=O)N[C@@H](CCCCN)C(=O)N[C@H](C(=O)N[C@@H](CCCNC(=N)N)C(=O)N[C@@H](CCC(N)=O)C(=O)N[C@@H](CCC(N)=O)C(=O)N[C@@H](CC(=O)O)C(=O)N[C@@H](Cc1ccccc1)C(=O)N[C@H](C(=O)N[C@@H](CC(N)=O)C(=O)N[C@@H](Cc1c[nH]c2ccccc12)C(=O)N[C@@H](CC(C)C)C(=O)N[C@@H](CC(C)C)C(=O)N[C@@H](C)C(=O)N[C@@H](CCC(N)=O)C(=O)N[C@@H](CCCNC(=N)N)C(=O)NCC(=O)N[C@@H](CCCCN)C(=O)N[C@@H](CCCCN)C(=O)N[C@@H](CO)C(=O)N[C@@H](CC(=O)O)C(=O)N[C@@H](Cc1c[nH]c2ccccc12)C(=O)N[C@@H](CCCCN)C(=O)N[C@@H](Cc1c[nH]cn1)C(=O)N[C@@H](CC(N)=O)C(=O)N[C@H](C(=O)N[C@H](C(=O)N[C@@H](CCC(N)=O)C(N)=O)[C@@H](C)O)[C@@H](C)CC)C(C)C)[C@@H](C)CC", "note": "[mouse GIP(1-42)NH2]", "values": [{"measurement": "Emax", "setting": "mouse GIP receptor [2]; HEK293, read-out: Arthmetic Mean Emax", "result": 103, "unit": "%"}, {"measurement": "HillSlope", "setting": "mouse GIP receptor [2]; run 2022-10-04, replicate 1", "result": 0.8118}, {"measurement": "HillSlope", "setting": "mouse GIP receptor [2]; run 2022-10-04, replicate 2", "result": 0.9861}, {"measurement": "HillSlope", "setting": "mouse GIP receptor [2]; run 2022-10-06, replicate 1", "result": 0.7723}, {"measurement": "HillSlope", "setting": "mouse GIP receptor [2]; run 2022-10-06, replicate 2", "result": 0.9288}, {"measurement": "HillSlope", "setting": "mouse GIP receptor [2]; run 2022-10-12", "result": 1.095}, {"measurement": "Span (four parameter fit)", "setting": "mouse GIP receptor [2]; run 2022-10-04, replicate 1", "result": 112.9, "unit": "Percent Max-Min"}, {"measurement": "Top (four parameter fit)", "setting": "mouse GIP receptor [2]; run 2022-10-04, replicate 1", "result": 112.9, "unit": "Percent Max-Min"}, {"measurement": "Span (four parameter fit)", "setting": "mouse GIP receptor [2]; run 2022-10-04, replicate 2", "result": 111.3, "unit": "Percent Max-Min"}, {"measurement": "Top (four parameter fit)", "setting": "mouse GIP receptor [2]; run 2022-10-04, replicate 2", "result": 106.4, "unit": "Percent Max-Min"}, {"measurement": "Bottom (four parameter fit)", "setting": "mouse GIP receptor [2]; run 2022-10-06, replicate 1", "result": -5.431, "unit": "Percent Max-Min"}, {"measurement": "Span (four parameter fit)", "setting": "mouse GIP receptor [2]; run 2022-10-06, replicate 1", "result": 105.7, "unit": "Percent Max-Min"}, {"measurement": "Top (four parameter fit)", "setting": "mouse GIP receptor [2]; run 2022-10-06, replicate 1", "result": 100.3, "unit": "Percent Max-Min"}, {"measurement": "Bottom (four parameter fit)", "setting": "mouse GIP receptor [2]; run 2022-10-06, replicate 2", "result": -2.463, "unit": "Percent Max-Min"}, {"measurement": "Span (four parameter fit)", "setting": "mouse GIP receptor [2]; run 2022-10-06, replicate 2", "result": 102, "unit": "Percent Max-Min"}, {"measurement": "Top (four parameter fit)", "setting": "mouse GIP receptor [2]; run 2022-10-06, replicate 2", "result": 99.51, "unit": "Percent Max-Min"}, {"measurement": "Bottom (four parameter fit)", "setting": "mouse GIP receptor [2]; run 2022-10-12", "result": -1.282, "unit": "Percent Max-Min"}, {"measurement": "Span (four parameter fit)", "setting": "mouse GIP receptor [2]; run 2022-10-12", "result": 97.15, "unit": "Percent Max-Min"}, {"measurement": "Top (four parameter fit)", "setting": "mouse GIP receptor [2]; run 2022-10-12", "result": 95.87, "unit": "Percent Max-Min"}]}
{"compound": "hGIP(3-30): a different GIPR antagonist that has been previously characterized (ref 27) (EGTFISDYSIAMDKIHQQDFVNWLLAQK; Gastric inhibitory polypeptide; UniProt P09681 54-81, looked up, fragment)", "values": [{"measurement": "Effect on tirzepatide-stimulated insulin secretion", "setting": "human islets", "result": "A similar outcome"}]}
{"compound": "human glucose-dependent insulinotropic polypeptide (hGIP) (from UniProt P09681 52-93)", "values": [{"measurement": "Gs recruitment (ligand-induced BRET), EC50", "setting": "[3]", "result": 153, "unit": "nM"}, {"measurement": "Gs recruitment (ligand-induced BRET), Emax", "setting": "[3]", "result": 101, "unit": "%"}, {"measurement": "[35S]GTPγS binding (G-protein activation), EC50", "setting": "[4]", "result": 0.735, "unit": "nM"}, {"measurement": "[35S]GTPγS binding (G-protein activation), Emax", "setting": "[4]", "result": 96.7, "unit": "%"}, {"measurement": "cAMP generation, EC50", "setting": "[4]", "result": 0.046, "unit": "nM"}]}
